We go through one compound from patent US20240335486A1, “COMPOSITION FOR REARING ORGANISM BELONGING TO ORDER DECAPODA AND COMPOSITION FOR PREVENTING OR TREATING INFECTION IN DECAPODS” (SUMITOMO CHEMICAL COMPANY, LIMITED, priority 2021, published 2024).

Structures are written as SMILES.

What all share (assay): Antibacterial activity of lactic acid cell culture products (plate culture, filter paper disk)
Common to all, as to format: cell-based

The test system of assay [1] is V. pengeicida TUMSAT-OG1 strain. The conditions noted are these: Vibrio penaeicida on Marine agar; disk with 20 μL culture filtrate (ampicillin 100 μg/mL); 25° C., 24 hours; read-out: diameter of the growth-inhibitory zone. As for the experimental part: (§1) Examination was performed on whether the cell culture products of NITE BP-03199, NITE BP-03200, and NITE BP-03201 have antibacterial activity to Vibrio bacteria. The V. parahaemolyticus TUMSAT-D6 strain (AHPND strain), V. nigripulchritudo TUMSAT-OK1 strain, and V. pengeicida TUMSAT-OG1 strain were used as Vibrio bacteria.
(§2) With reference to FIG. 4, the experimental method will be described. With a bacteria spreader, 100 μL of a bacterial solution 11 of a Vibrio bacterium (approximately 10^8 cfu/mL) was smeared on agar medium 12. The agar medium used was Marine agar (Difco). A filter paper disk 15 was impregnated with 20 μL of a lactic acid bacterial culture filtrate 13, and placed on the agar medium with a Vibrio bacterium smeared thereon. The lactic acid bacterial culture filtrate (cell culture product) was a solution obtained through a process that any lactic acid bacterium of NITE BP-03199, NITE BP-03200, and NITE BP-03201 was cultured with MRS Broth at a temperature of 30° C. and the culture supernatant was filtered through a filter having a pore size of 0.22 μm. The turbidity of each lactic acid bacterial culture solution at a wavelength of 600 nm was approximately 10 OD. The agar medium with filter paper disk 15 placed thereon was subjected to culture at 25° C. for 24 hours, and the diameter (mm) of a growth-inhibitory zone 14 was measured. Each numerical value shown in Table 7 indicates the diameter (mm) of the growth-inhibitory zone. A filter paper disk was impregnated with medium for lactic acid bacteria (MRS Broth) as a negative control, and another one was impregnated with the antibiotic ampicillin (100 μg/mL) as a positive control.

Assay [2] has as its system V. parahaemolyticus TUMSAT-D6 strain (AHPND strain). The conditions noted are these: Vibrio parahaemolyticus on Marine agar; disk with 20 μL culture filtrate (ampicillin 100 μg/mL); 25° C., 24 hours; read-out: diameter of the growth-inhibitory zone. As for the experimental part:
as §1, §2

Assay [3] has as its system V. nigripulchritudo TUMSAT-OK1 strain. The conditions noted are these: Vibrio nigripulchritudo on Marine agar; disk with 20 μL culture filtrate (ampicillin 100 μg/mL); 25° C., 24 hours; read-out: diameter of the growth-inhibitory zone. As for the experimental part:
as §1, §2

As for `CC1(C)S[C@@H]2[C@H](NC(=O)[C@H](N)c3ccccc3)C(=O)N2[C@H]1C(=O)O` [Ampicillin, ampicillin], the zone of inhibition at 100 µg/mL amounted to 37 mm in assay [1], 28 mm in assay [2] and 29 mm in assay [3].
